Legend:
[1] = target: T1, Ectonucleotide pyrophosphatase/phosphodiesterase family member 3 (Homo sapiens, UniProt O14638); assay: Inhibition of recombinant human ENPP3 using p-Nph-5'-TMP as substrate by absorbance based analysis
T1 sequence (O14638 whole entry): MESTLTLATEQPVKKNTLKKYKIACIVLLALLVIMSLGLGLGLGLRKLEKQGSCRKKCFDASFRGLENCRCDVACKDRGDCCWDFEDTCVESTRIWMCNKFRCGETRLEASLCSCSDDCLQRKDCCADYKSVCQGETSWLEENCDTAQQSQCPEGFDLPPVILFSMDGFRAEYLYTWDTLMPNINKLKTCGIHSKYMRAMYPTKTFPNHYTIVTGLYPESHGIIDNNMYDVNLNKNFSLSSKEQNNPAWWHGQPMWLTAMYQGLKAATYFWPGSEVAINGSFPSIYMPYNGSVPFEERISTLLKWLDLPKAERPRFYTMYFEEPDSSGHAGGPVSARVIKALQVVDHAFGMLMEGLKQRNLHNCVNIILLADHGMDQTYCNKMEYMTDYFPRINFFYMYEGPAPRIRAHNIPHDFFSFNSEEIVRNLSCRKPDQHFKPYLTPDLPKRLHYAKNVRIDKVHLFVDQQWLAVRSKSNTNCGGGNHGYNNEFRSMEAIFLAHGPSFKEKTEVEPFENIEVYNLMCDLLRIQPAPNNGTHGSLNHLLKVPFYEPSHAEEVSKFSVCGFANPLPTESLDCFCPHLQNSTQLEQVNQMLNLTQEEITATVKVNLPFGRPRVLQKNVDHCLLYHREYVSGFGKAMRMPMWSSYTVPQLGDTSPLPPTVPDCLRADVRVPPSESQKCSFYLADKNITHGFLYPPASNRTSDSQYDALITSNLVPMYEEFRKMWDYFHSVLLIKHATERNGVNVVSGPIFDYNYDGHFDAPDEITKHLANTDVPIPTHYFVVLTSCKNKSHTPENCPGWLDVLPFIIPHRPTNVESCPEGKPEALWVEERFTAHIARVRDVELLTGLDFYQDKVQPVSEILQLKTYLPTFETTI

Autotaxin = Autotaxin (Mus musculus, UniProt Q9R1E6); assay: Inhibition of N-terminal recombinant mouse ENPP2 […] extracted from HEK293F cells using p-Nph-5'-TMP as substrate by absorbance based analysis; assay type: cell-free

Structure (SMILES) | IC50 [1] [nM] | IC50 (Autotaxin) [nM]
COc1ccc2c(-c3ccc(CNS(N)(=O)=O)cc3)ccnc2c1 | 1270 | > 10000
COc1cccc(F)c1-c1nc(C(=O)Nc2cc(F)ccc2N2CCC(NS(N)(=O)=O)CC2)cn2ccnc12 | 2520 | > 10000
